Experimental data reported in patent US10537567B2, “Kinase inhibitors for treatment of disease” (BioAxone BioSciences, Inc., priority 2017, dated 2020).
“Also recorded” adds a separate entry of the source.

Assays:
ROCK2 [1] = target: T1, ROCK2 (Homo sapiens, UniProt O75116); experiment: IC50 determined at 10 μM ATP; assay type: biochemical; parameters: purchased Eurofins Testing (Dundee, Scotland, UK); conditions: for IC50: 10 μM ATP (below Km), * = preliminary
Text: The data in Table 2 were obtained at ATP concentration below those corresponding to Km.
Target sequence in this assay (O75116 whole entry): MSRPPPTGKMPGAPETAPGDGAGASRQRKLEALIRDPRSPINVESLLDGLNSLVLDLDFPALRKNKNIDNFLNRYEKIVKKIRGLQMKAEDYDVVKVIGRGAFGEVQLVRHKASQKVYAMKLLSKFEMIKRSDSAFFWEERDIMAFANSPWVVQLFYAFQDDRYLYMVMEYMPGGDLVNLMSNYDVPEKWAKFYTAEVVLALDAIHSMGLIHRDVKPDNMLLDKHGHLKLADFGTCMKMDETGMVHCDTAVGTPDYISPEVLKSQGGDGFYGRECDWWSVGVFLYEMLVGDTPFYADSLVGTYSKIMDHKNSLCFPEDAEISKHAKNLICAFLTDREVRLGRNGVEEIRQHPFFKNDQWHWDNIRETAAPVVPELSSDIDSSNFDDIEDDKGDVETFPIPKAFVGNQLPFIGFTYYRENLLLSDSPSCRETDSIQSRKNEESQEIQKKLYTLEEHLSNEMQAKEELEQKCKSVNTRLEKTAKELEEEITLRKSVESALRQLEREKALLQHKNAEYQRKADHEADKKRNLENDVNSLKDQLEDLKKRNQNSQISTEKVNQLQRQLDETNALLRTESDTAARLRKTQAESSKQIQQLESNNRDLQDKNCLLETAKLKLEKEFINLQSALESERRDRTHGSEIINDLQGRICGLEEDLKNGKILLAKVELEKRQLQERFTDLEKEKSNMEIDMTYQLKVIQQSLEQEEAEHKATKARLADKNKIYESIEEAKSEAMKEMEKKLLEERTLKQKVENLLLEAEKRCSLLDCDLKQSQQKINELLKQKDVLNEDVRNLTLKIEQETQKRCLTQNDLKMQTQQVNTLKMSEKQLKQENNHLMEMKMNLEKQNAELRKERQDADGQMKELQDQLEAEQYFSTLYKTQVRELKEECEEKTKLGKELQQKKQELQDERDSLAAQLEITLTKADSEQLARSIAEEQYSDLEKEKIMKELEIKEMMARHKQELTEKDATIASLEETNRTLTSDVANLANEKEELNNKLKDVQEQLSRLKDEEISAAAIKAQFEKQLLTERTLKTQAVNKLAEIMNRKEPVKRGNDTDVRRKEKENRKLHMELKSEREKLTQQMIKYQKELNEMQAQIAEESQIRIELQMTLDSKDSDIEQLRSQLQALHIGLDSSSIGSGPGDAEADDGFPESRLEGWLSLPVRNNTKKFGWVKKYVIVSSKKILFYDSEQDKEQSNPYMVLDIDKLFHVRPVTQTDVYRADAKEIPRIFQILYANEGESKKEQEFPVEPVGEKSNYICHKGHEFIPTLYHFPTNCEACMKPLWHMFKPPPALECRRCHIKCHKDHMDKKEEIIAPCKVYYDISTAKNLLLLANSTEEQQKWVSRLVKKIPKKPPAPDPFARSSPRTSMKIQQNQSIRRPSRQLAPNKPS

PKC Δ = target: T2, PKC Δ (Homo sapiens, UniProt Q05655); experiment: DiscoverX kinome screen; assay type: binding; conditions: 10,000 nM API
T2 construct: are incubated with DNA-tagged kinase domains tagged; DNA tag; purchased DiscoverX
T2 sequence (Q05655 349-603 limits assumed, stated change not applied): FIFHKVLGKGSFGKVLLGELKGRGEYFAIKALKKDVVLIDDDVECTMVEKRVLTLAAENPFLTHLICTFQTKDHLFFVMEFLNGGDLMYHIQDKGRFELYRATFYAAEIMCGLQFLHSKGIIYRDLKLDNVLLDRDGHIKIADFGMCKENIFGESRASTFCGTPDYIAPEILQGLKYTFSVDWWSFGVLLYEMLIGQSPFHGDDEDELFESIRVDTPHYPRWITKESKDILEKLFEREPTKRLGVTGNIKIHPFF
Protocol: (§1) A 468-target kinome screen and a safety screen were carried out to examine the off-target profiles of different kinase inhibitors (DiscoverX, Freemont, Calif.). The kinome screen is a binding assay where API interference of kinase domain/substrate binding is assessed as percent of control. Less than 10% binding (or >90% binding inhibition) is most biologically relevant and considered as a ‘hit’. BA-2017 only had 7 off-target hits compared to BA-1049 and Netarsudil, which both had 11 hits (Table 1) (Studirvant et al. 2016 Bioorg Med Chem Lett. 26(10):2475-2480). […] Published data for Netarsudil were with 200 times less API. […] The NET activity likely helps to decrease IOP but might increase hyperemia, while the SERT activity might have long-term safety consequences (Costagliola et al. 2004 CNS drugs 18(8): p. 475-484).
(§2) In the kinome screen BA-2017 had fewer off-target hits (Table 1) than BA-1049. […] An interesting hit from the kinome screen was on Abl (Table 1), an oncogene that also regulates many cellular activities, including vascular leakage.

PKC ε = target: T3, PKC ε (Homo sapiens, UniProt Q02156); experiment: DiscoverX kinome screen; assay type: binding; conditions: 10,000 nM API
T3 construct: are incubated with DNA-tagged kinase domains tagged; DNA tag; purchased DiscoverX
T3 sequence (Q02156 408-668 limits assumed): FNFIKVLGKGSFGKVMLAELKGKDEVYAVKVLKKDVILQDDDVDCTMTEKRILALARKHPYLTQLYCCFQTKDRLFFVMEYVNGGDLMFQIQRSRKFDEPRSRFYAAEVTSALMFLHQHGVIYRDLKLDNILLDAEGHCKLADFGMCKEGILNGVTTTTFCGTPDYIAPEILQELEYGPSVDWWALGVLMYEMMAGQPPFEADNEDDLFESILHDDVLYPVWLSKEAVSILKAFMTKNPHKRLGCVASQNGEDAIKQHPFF
Protocol: as §1, §2

GRK1 = target: T4, GRK1 (Homo sapiens, UniProt Q15835); experiment: DiscoverX kinome screen; assay type: binding
T4 construct: are incubated with DNA-tagged kinase domains tagged; DNA tag; purchased DiscoverX
T4 sequence (Q15835 190-455 limits assumed): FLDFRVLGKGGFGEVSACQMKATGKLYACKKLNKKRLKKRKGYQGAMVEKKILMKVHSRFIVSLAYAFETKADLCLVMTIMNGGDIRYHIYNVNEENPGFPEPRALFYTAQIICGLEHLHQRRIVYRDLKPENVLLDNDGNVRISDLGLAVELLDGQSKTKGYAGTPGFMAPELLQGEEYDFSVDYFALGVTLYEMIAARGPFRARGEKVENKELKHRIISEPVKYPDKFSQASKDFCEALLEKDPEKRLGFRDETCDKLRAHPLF
Protocol: as §1, §2

468-target kinome screen = experiment: DiscoverX kinome screen, off-target hits; assay type: binding, human; conditions: 10,000 nM API; for # Hits <10% binding: hit = less than 10% binding (>90% binding inhibition)
Protocol: as §1, §2

[2] = Oral dosing of cynomolgus monkeys, systemic side effects; assay type: in vivo; conditions: 18 mg/kg oral gavage, 4 monkeys
Protocol: Oral dosing of 4 cynomolgus monkeys dosed with 18 mg/kg oral BA-1049 by oral gavage were completed to understand potential systemic side effects. The only side effects noticed at this dose was squinting by the monkeys.

ROCK1 [3] = target: T5, ROCK1 (Homo sapiens, UniProt Q13464); experiment: IC50 determined at 10 μM ATP; assay type: biochemical; parameters: purchased Eurofins Testing (Dundee, Scotland, UK); conditions: 10 μM ATP (below Km)
PKA [4] = target: T6, PKA (Homo sapiens, UniProt P17612); experiment: Single dose inhibition assay of key AGC class kinases; assay type: biochemical; conditions: 10 μM API
Protocol: Molecular modeling and rational drug design were used to create and screen over 50 ROCK inhibitors. These ROCK inhibitors were screened for selectivity for ROCK2 and ability to promote neurite outgrowth. Several lead inhibitors came out of this screen and further screened for inhibition of key AGC class kinases by a single dose inhibition assay performed with 10 μM active pharmaceutical ingredient (API). The lead compound is chiral. […] They have different selectivity for ROCK2 (Table 2) and different off-target profiles (Table 1; FIG. 1).

ROCK1 [5] = target: T5, ROCK1; experiment: DiscoverX kinome screen; assay type: binding; parameters: are incubated with DNA-tagged kinase domains tagged; DNA tag; purchased DiscoverX; conditions: 10,000 nM API
Protocol: as §1, §2
Target sequence in this assay (Q13464 76-338 limits assumed): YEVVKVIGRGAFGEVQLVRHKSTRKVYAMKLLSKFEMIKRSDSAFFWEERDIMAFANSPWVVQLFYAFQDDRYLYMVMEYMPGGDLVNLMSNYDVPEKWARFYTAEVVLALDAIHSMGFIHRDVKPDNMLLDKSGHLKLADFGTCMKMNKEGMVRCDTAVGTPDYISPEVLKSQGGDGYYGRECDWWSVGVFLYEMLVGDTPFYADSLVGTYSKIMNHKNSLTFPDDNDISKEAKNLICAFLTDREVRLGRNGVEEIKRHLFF

ROCK2 [6] = target: T1, ROCK2; experiment: DiscoverX kinome screen; assay type: binding; parameters: are incubated with DNA-tagged kinase domains tagged; DNA tag; purchased DiscoverX; conditions: 10,000 nM API
Protocol: as §1, §2
Target sequence in this assay (O75116 92-354 limits assumed): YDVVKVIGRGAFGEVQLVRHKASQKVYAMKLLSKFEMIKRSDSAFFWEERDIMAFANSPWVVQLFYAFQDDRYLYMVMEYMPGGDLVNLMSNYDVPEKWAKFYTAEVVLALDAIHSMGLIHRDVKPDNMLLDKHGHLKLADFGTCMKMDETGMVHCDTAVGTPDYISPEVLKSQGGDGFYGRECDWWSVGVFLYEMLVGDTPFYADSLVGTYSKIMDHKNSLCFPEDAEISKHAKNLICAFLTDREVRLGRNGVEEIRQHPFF

[7] = target: T7, norepinephrine transporter (NET) (Homo sapiens, UniProt P23975); experiment: Safety screen; assay type: biochemical; conditions: 10,000 nM API
T7 construct: purchased DiscoverX
T7 sequence (P23975 whole entry): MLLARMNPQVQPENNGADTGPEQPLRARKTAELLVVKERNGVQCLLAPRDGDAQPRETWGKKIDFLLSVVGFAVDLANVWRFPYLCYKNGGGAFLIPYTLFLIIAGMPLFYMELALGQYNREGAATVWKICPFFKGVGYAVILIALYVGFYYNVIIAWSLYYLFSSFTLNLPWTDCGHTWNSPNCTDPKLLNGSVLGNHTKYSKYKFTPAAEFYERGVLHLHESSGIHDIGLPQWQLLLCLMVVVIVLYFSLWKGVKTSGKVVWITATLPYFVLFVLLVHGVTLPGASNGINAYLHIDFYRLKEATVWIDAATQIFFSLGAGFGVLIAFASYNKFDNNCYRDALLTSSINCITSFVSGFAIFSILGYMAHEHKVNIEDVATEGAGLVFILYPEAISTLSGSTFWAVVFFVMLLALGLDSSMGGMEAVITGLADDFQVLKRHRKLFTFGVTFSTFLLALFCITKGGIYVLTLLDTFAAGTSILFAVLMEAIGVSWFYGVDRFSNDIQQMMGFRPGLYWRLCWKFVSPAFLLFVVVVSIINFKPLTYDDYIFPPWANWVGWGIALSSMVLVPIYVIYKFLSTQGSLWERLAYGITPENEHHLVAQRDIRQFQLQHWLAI
Protocol: as §1
(§3) These targets include GPCRs, transporters, ion channels, nuclear receptors, non-kinase enzymes.

[8] = target: T8, serotonin transporter (SERT) (Homo sapiens, UniProt P31645); experiment: Safety screen; assay type: biochemical; conditions: 10,000 nM API
T8 construct: purchased DiscoverX
T8 sequence (P31645 whole entry): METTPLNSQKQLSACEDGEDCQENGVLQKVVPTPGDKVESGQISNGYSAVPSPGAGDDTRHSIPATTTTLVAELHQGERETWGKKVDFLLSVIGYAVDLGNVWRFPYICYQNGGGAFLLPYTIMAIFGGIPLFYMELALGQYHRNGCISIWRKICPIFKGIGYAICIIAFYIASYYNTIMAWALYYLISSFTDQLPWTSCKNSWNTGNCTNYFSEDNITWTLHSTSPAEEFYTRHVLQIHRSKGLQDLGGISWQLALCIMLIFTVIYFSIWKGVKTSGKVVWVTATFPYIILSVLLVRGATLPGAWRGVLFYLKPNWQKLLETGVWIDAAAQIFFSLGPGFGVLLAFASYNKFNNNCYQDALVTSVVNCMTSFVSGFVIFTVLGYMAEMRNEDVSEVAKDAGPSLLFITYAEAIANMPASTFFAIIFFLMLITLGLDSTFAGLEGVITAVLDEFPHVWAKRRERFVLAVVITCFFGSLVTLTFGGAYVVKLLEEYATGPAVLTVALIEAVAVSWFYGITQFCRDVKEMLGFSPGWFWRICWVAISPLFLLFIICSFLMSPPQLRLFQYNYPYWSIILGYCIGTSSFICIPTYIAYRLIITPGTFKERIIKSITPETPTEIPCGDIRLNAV
Protocol: as §1, §3

[9] = Brain and blood vessel exposure after oral administration; assay type: in vivo, Sprague Dawley rats
Protocol: (§4) Adult Sprague Dawley rats (Charles River Laboratories) were used for this experiment. […] One g of tissue was homogenized in 1 mL of 1×PBS. Homogenates were precipitated by pipetting 200 μL of homogenate into a tube using aseptically cut off 1000 μL pipette tips to prevent clogging. Samples are further diluted with 100 μL PBS to aid in precipitation. 900 μL of cold methanol was added to each sample and samples were vortexed for 5 to 10 seconds. Samples were placed at 4° C. for 30 to 40 min and then centrifuged at 10,000 g for 15 min at 4° C. The supernatant is collected and stored at −80° C. until analyzed.
Pathological angiogenesis that occurs in the retina is a major feature of leading blinding diseases, and particularly associated with diabetic retinopathy and age-related macular degeneration.

ROCK2 [10] = target: T1, ROCK2; experiment: Direct filter-binding radiometric kinase assay (Eurofins) at Km ATP; assay type: biochemical; parameters: purchased Eurofins Testing (Dundee, Scotland, UK); conditions: for ROCK1/ROCK2 (fold difference): IC50 at respective Km ATP
Protocol: ROCK1 and ROCK2 IC50 determinations were made using ATP concentrations at the Km ATP of 70 μM and 15 μM for ROCK1 and ROCK2, respectively.
For the data shown in Table 4, IC50 inhibition curves were performed at the respective Km for ATP for both ROCK1 and ROCK2. Performing these assays at the Km of ATP gives a better representation of the inhibitory activity. Other comparisons where differing kinases are tested at a single ATP concentration can potentially misrepresent the comparative efficacy since enzyme inhibitory activity tested below the Km for ATP of the enzyme, produces a circumstance where the enzyme is actually not constantly bound with ATP and the reaction velocity becomes sub-optimal.
Target sequence in this assay (O75116 whole entry): as the sequence (O75116 whole entry) above

[11] = Penetration and distribution in ocular tissues after topical instillation (LC-MS); assay type: in vivo, Sprague Dawley rats; conditions: topical 3% solution of metabolite, 20 minutes
Protocol: as §4
For the optic nerve sample, the concentration is shown per length of optic nerve (right y-axis). […] Therefore, drug is available in the retina and optic nerve for treating these tissues affected in glaucoma and other retinal diseases.
In FIG. 14 we examined the ability of metabolite to penetrate the ocular tissues of the eye after topical instillation of a 3% solution of metabolite. In comparison with FIG. 13, that also the metabolite has adequate penetration into ocular and CNS tissue. Of particular note is the penetration in the retina and presence in the optic nerve. All compounds were given topically as eye drops to the eye of adult Sprague Dawley rats. Twenty minutes later the indicated tissues were removed and the parent compound and active metabolite were analyzed by LC/MS.

[12] = followed 24 months; cited from earlier work
PKA [13] = target: T6, PKA; conditions: cited from earlier work
[14] = clinical studies; cited from earlier work
[15] = cited from earlier work
PKA, PKC and CaMKII = conditions: cited from earlier work

SMILES	IC50 (ROCK2 [1]) [nM]	Kinome Screen % inhibition PKC Δ (PKC Δ) [%]	Kinome Screen % inhibition PKC ε (PKC ε) [%]	Kinome Screen Other (other off-target kinase) (468-target kinome screen)	# Hits <10% binding (468-target kinome screen)	Kinome Screen % inhibition ROCK1 (ROCK1 [5]) [%]	Kinome Screen % inhibition ROCK2 (ROCK2 [6]) [%]	Safety Screen % inhibition NET [7]	Safety Screen % inhibition SERT [8]	Exposure in blood vessels [9]	ROCK1/ROCK2 (fold difference) (ROCK2 [10])	Hyperemia in humans [14]	further results
C[C@@H](N)C1CCN(S(=O)(=O)c2cccc3cnccc23)CC1 [BA-1049]	240	<70	95	none	11	>99	>99	none	none	accumulate at high concentrations in blood vessels	43.4		Fold-difference (ROCK2 [1]; ROCK1 vs ROCK2 IC50 at 10 μM ATP): 16; Off-target activity on GRK1 (GRK1): has some activity toward G-protein couple protein kinase1; also recorded: showed binding to G-protein couple protein kinase1 (GRK1); Side effects [2]: squinting; IC50 (ROCK1 [3]): 3900 nM; Inhibition of PKA (PKA [4]): Neither compound inhibited PKA; Brain penetrance [9]: is able to cross the blood brain barrier; IC50 (ROCK2 [10]; ATP at Km, 15 μM, * = higher purity BA-1076): 599 nM
C[C@@H](N)C1CCN(S(=O)(=O)c2cccc3c(=O)[nH]ccc23)CC1 [BA-2017]	50	<85	94.7	GRK1	7	>99	>99	none	none	accumulate at high concentrations in blood vessels	16.5		Penetration into ocular tissues [11]: can penetrate ocular tissue
C[C@@H](N)[C@H]1CC[C@H](C(=O)Nc2ccncc2)CC1 [Compound Y27432, Y27432]													Corneal clarity and vision [12]: corneal clarity improved and vision improved
C[C@@H](N)[C@H]1CC[C@H](C(=O)Nc2ccncc2)CC1 [Compound Y-27632, Y-27632]													Binding to PKA (PKA [13]): all bind PKA
Cc1ccc(C(=O)OCc2ccc([C@@H](CN)C(=O)Nc3ccc4cnccc4c3)cc2)c(C)c1 [Netarsudil]												cause hyperemia (red eyes) as a major side effect	Duration of hyperemia on day 1 ([15]; 0.04% Netarsudil): at least 8 hours; Duration of mild hyperemia ([15]; Dutch belted rabbits): 4 to 8 h
C[C@H]1CNCCCN1S(=O)(=O)c1cccc2cncc(F)c12 [Ripasudil]												more frequent and of longer duration than Netarsudil; also recorded: cause hyperemia (red eyes) as a major side effect	Inhibition of PKA, PKC and CaMKII (PKA, PKC and CaMKII): both inhibit PKA, PKC and CaMKII
